The source of these data is US20070155687A1, “Methods and compositions for altering cell function” (Alltech, Inc., priority 2005, published 2007).

Data set [1] concerns Glutathione S-transferase, theta 2 (Gstt2). Nature of the data set: Intestinal gene expression: Gstt2. The settings on record: mouse intestine; diet 1 ppm Se, 100 days; vs Se-deficient diets; negative = down; NS = not significant. The data set is classed as in vivo. An excerpt: (§1) Animal Care. Male C57BL/6J mice were housed singly and started on the experimental diets described below immediately after weaning (21 days of age). The mice were maintained in the Shared Aging Rodent Facility at the William S. Middleton Memorial Veterans Administration Medical Center (Madison, Wis.). Temperature and humidity were maintained at constant levels. Room light was controlled to provide 12-hr cycles of light and dark.
(§2) Experimental diets were created by Harlan Teklad (Madison, Wis.). Selenium content of the diets was determined by Covance Inc. (Madison, Wis.). Five (5) animals were included in each of the following treatment groups: a diet deficient in selenium (SD); a diet supplemented with selenomethionine (SM, obtained from Sigma, St. Louis, Mo.) such that the final selenium content of the diet was one (1) part per million; a diet supplemented with sodium selenite (SS, Sigma) such that the final concentration of selenium in this diet was one (1) part per million; or a diet supplemented with the yeast selenium SEL-PLEX (SP, Alltech, Lexington, Ky), such that the final concentration of selenium in this diet was one (1) part per million. SEL-PLEX. […]
(§3) Tissue sample preparation and microarray analysis. […] For intestinal expression studies, the intestine was flushed twice with saline solution and small intestine was measured and divided in three equal segments. […]

In data set [2] the test system is Cu chaperone for SOD, (CCS). As to the kind of experiment: Intestinal gene expression: Cu chaperone for SOD. The data set is classed as in vivo. The note with it: mouse intestine; diet 1 ppm Se, 100 days; vs selenium deficient.
From the text: as §1, §2, §3

Data set [3] in a line: Body weight of mice on selenium diets. It counts as in vivo, mouse. The note with it: diet 1 ppm Se, 100 days; compared across diets incl. selenium deficient diet (FIG. 1).
From the text: as §1
Experimental diets were created by Harlan Teklad (Madison, Wis.). Selenium content of the diets was determined by Covance Inc. (Madison, Wis.). […]
Thus, it was an object of the present invention to determine whether compositions and methods of the present invention could alter the expression levels (e.g., niRNA levels) of various genes. One group of genes analyzed were genes classically associated with selenium. As described above, the expression levels of genes were analyzed between mice with and without dietary selenium, or, between mice fed different sources of selenium) (See, e.g., Table 1, below).

The test system of another data set is CORS-26. As to the kind of experiment: Cerebral cortex gene expression: CORS-26. The settings on record: mouse cerebral cortex; diet 1 ppm Se, 100 days; vs selenium deficient. It counts as in vivo.
From the text: as §1, §2, §3

Another data set relates to calpain-5. Nature of the data set: Expression level of calpain genes after selenium administration. The data set is classed as in vivo. The note with it: signed change (+ up, − down); tissue not stated; * not explained. Here is the method: Compositions and methods of the present invention were analyzed to determine if they were capable of altering the expression levels of calpain genes. Compositions comprising various forms of selenium (e.g., SeM, Sod-sel, and SEL-PLEX) were administered to subjects and the expression levels of calpain genes monitored. The expression level of calpain-5 was altered by treatment in the following ways: free selenomethionine (SM)+1.32*, Sod-sel−1.07, SEL-PLEX−1.44*.

The next data set deals with Glyoxalase 1 (Glo 1). Nature of the data set: Intestinal gene expression: Glo1. The note with it: mouse intestine; diet 1 ppm Se, 100 days; vs selenium deficient. The data set is classed as in vivo.
From the text: as §1, §2, §3

The test system of another data set is selenoprotein N1 (Sepn1). As to the kind of experiment: Intestinal gene expression: selenoprotein N1. The data set is classed as in vivo. The settings on record: mouse intestine; diet 1 ppm Se, 100 days; vs selenium deficient.
From the text: as §1, §2, §3

The test system of data set [4] is LIM homeobox protein 8 gene (Lhx8). As to the kind of experiment: Intestinal gene expression: Lhx8. It counts as in vivo. The note with it: mouse intestine; diet 1 ppm Se, 100 days; vs Se-deficient subjects.
From the text: as §1, §2, §3

The test system of data set [5] is sprouty homolog 2 gene (Spry2). As to the kind of experiment: Intestinal gene expression: Spry2. The data set is classed as in vivo. The note with it: mouse intestine; diet 1 ppm Se, 100 days; relative to Se-deficient controls.
From the text: as §1, §2, §3

Consider `O=[Se](O)O` [Sod-sel, sodium selenite], for which, in [1], the “FC Gstt2 expression” value is reported as −1.3 fold. In addition, the “enhancement in the expression of the Cu chaperone for SOD (CCS)” value in [2] was determined as 1.28 fold. For the same compound, the “body weights of mice” value in data set [3] is reported as “No significant differences”.

Regarding `C[Se]CC[C@H](N)C(=O)O` [SeM, selenomethionine], in the data set with CORS-26, the “CORS-26 expression, reduction in expression” value is “no alteration”. The “expression level of calpain-5 altered by treatment” value in the data set on calpain-5 is on record as “+1.32”. The “Glo1 expression, reduction of expression” value with Glyoxalase 1 (Glo 1) is on record as “not significantly affected”. The “selenoprotein N1 (Sepn1) expression level, increased” value with selenoprotein N1 (Sepn1) was “not significantly affected”. The “Lhx8 expression, upregulated” value in [4] is reported as “not significantly different”. Besides, the “Spry2 gene expression, reduction” value in [5] is given as “no alteration”.
